Results from patent US9328138B2 (priority 2011, dated 2016).
“And” between values parts separate entries of the source, which are not always exact repeats. Equal values may be shown once.

Legend:
[1] = target: T1, HCV genotype 1b (BK) NS3 modified enzyme with a R155K mutation (Hepatitis C virus genotype 1b, UniProt P26663, R1181K); assay: HCV NS3 protease time-resolved fluorescence (TRF) assay, genotype 1b R155K; type: biochemical; details: Ki 1b R155K
T1 construct: HCV genotype 1b (BK) NS3 modified enzyme
Summary of the method: (§1)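 IC50 values derive from 4-parameter fitting of TRF signal after a 6 h room-temperature cleavage of 25 nM peptide substrate by NS3/NS4A that had been pre-incubated 10 min with compound.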

[2] = target: HCV NS3 protease genotype 3a (3A-1) (Hepatitis C virus genotype 3a, UniProt Q81258); assay: HCV NS3 protease time-resolved fluorescence (TRF) assay, genotype 3a; type: biochemical; details: Ki 3a
Summary of the method: as §1

[3] = genotype 1b (BK) NS3 R155K, single value
[4] = first of two values printed in the cell (not explained)
[5] = second of two values printed in the cell (not explained)

| SMILES | Ki [1, 3] | Ki [2] | Ki [1, 4] | Ki [1, 5] |
| --- | --- | --- | --- | --- |
| C=C[C@@H]1C[C@]1(NC(=O)[C@@H]1C[C@@H]2CN1C(=O)[C@H](C(C)(C)C)NC(=O)O[C@@H]1CCC[C@H]1CCCCCc1c(nc3ccccc3c1OCCN(C)C)O2)C(=O)NS(=O)(=O)C1(CCN2CCOCC2)CC1 [Example 103, (3aR,7S,10S,12R,24aR)-7-tert-butyl-19-[2-(dimethylamino)ethoxy]-N-{(1R,2S)-2-ethenyl-1-[({1-[2-(morpholin-4-yl)ethyl]cyclopropyl}sulfonyl)carbamoyl]cyclopropyl}-5,8-dioxo-1,2,3,3a,5,6,7,8,11,12,20,21, 22,23,24,24a-hexadeca hydro-10H-9,12-methanocyclo-penta[18,19][1,10,3,6] dioxadiazacyclononadecino [11,12-b]quinoline-10-carboxamide] | 0.77 nM and 0.13 nM | 8.5 nM and 1.1 nM | – | – |
| C=C[C@@H]1C[C@]1(NC(=O)[C@@H]1C[C@@H]2CN1C(=O)[C@H](C(C)(C)C)NC(=O)O[C@@H]1C[C@H]1CCCCCc1c(nc3ccccc3c1O)O2)C(=O)NS(=O)(=O)C1(C)CC1 [Example 120, (1aR,5S,8S,10R,22aR)-5-tert-butyl-N-[(1R,2S)-2-ethenyl-1-{[(1-methylcyclopropyl)sulfonyl]carbamoyl}cyclopropyl]-17-hydroxy-3,6-dioxo-1,1a,3,4,5,6,9,10,18, 19,20,212,22,22a-tetradeca hydro-8H-7,10-methanocyclopropa [18,19][1,10,3,6]dioxadiazacyclo-nonadecino [11,12-b]quinoline-8-carboxamide] | 0.062 nM | 1.1 nM | – | – |
| C=C[C@@H]1C[C@]1(NC(=O)[C@@H]1C[C@@H]2CN1C(=O)[C@H](C1CCCC1)NC(=O)O[C@@H]1CCC[C@H]1CC/C=C/Cc1c(nc3ccccc3c1OCC(=O)O)O2)C(=O)NS(=O)(=O)C1CC1 [Example 66, {[(3aR,7S,10S,12R,21E,24aS)-7-cyclopentyl-10-({(1R,2S)-1-[(cyclopropylsulfonyl)carbamoyl]-2-ethenylcyclopropyl}carbamoyl)-5,8-dioxo-1,2,3,3a,5,6,7,8,11,12,20,23,24,24a-tetradecahydro-10H-9,12-methanocyclopenta[18,19][1,10,3,6]dioxadiazacyclononadecino[11,12-b]quinolin-19-yl]oxy}acetic acid] | 0.077 nM | 25 nM | – | – |
| C=C[C@@H]1C[C@]1(NC(=O)[C@@H]1C[C@@H]2CN1C(=O)[C@H](C(C)(C)C)NC(=O)O[C@@H]1C[C@H]1CCCCCc1c(nc3ccccc3c1OC1C3COCC1CN(CC)C3)O2)C(=O)NS(=O)(=O)C1(C)CC1 (stereo partly drawn) [Example 260, (1aR,5S,8S,10R,22aR)-5-tert-butyl-N-[(1R,2S)-2-ethenyl-1-{[(1-methylcyclopropyl)sulfonyl]carbamoyl}cyclopropyl]-17-[(7-ethyl-3-oxa-7-azabicyclo[3.3.1]non-9-yl)oxy]-3,6-dioxo-1,1a,3,4,5,6,9,10,18,19,20,21,22,22a-tetradecahydro-8H-7,10-methanocyclopropa[18,19][1,10,3,6]dioxadiazacyclononadecino[11,12-b]quinoline-8-carboxamide] | – | 2.4 nM | 0.019 nM | 0.093 nM |
| C=C[C@@H]1C[C@]1(NC(=O)[C@@H]1C[C@@H]2CN1C(=O)[C@H](C(C)(C)C)NC(=O)O[C@@H]1C[C@H]1CCCCCc1c(nc3ccccc3c1OC1CC3CCC(C1)N3)O2)C(=O)NS(=O)(=O)C1(C)CC1 (single isomer, unassigned) [Example 274] | – | 0.094 nM | 0.015 nM | 0.015 nM |
| C=C[C@@H]1C[C@]1(NC(=O)[C@@H]1C[C@@H]2CN1C(=O)[C@H](C(C)(C)C)NC(=O)O[C@@H]1C[C@H]1CCCCCc1c(nc3ccccc3c1OC)O2)C(=O)NS(=O)(=O)C1(C)CC1 [Example 119] | 0.12 nM | 3.2 nM | – | – |
| C=C[C@@H]1C[C@]1(NC(=O)[C@@H]1C[C@@H]2CN1C(=O)[C@H](C1CCCC1)NC(=O)O[C@@]1(C)C[C@@H]1CC/C=C/Cc1c(nc3ccccc3c1O)O2)C(=O)NS(=O)(=O)C1CC1 [Example 20, (1aS,5S,8S,10R,19E,22aS)-5-cyclopentyl-N-{(1R,2S)-1-[(cyclopropylsulfonyl)carbamoyl]-2-ethenylcyclopropyl}-17-hydroxy-1a-methyl-3,6-dioxo-1,1a,3,4,5,6,9,10,18,21,22,22a-dodecahydro-8H-7,10-methanocyclopropa[18,19][1,10,3,6]dioxadiazacyclononadecino[11,12-b]quinoline-8-carboxamide] | 0.55 nM | 22 nM | – | – |
| C=C[C@@H]1C[C@]1(NC(=O)[C@@H]1C[C@@H]2CN1C(=O)[C@H](C(C)(C)C)NC(=O)O[C@@H]1CCC[C@H]1CC/C=C/Cc1c(nc3ccccc3c1OCCCO)O2)C(=O)NS(=O)(=O)C1(C)CC1 [Example 71, (3aR,7S,10S,12R,21E,24aS)-7-tert-butyl-N-[(1R,2S)-2-ethenyl-1-{[(1-methylcyclopropyl)sulfonyl]carbamoyl}cyclopropyl]-19-(3-hydroxypropoxy)-5,8-dioxo-1,2,3,3a,5,6,7,8,11,12,20,23,24,24a-tetradecahydro-10H-9,12-methanocyclopenta[18,19][1,10,3,6]dioxadiazacyclononadecino[11,12-b]quinoline-10-carboxamide] | < 0.016 nM | 0.42 nM | – | – |
| C=C[C@@H]1C[C@]1(NC(=O)[C@@H]1C[C@@H]2CN1C(=O)[C@H](C(C)(C)C)NC(=O)O[C@@H]1C[C@H]1CCCCCc1c(nc3ccccc3c1OC1CCN(CC)CC1)O2)C(=O)NS(=O)(=O)C1(C)CC1 [Example 229, (1aR,5S,8S,10R,22aR)-5-tert-butyl-N-[(1R,2S)-2-ethenyl-1-{[(1-methylcyclopropyl)sulfonyl]carbamoyl}cyclopropyl]-17-[(1-ethylpiperidin-4-yl)oxy]-3,6-dioxo-1,1a,3,4,5,6,9,10,18,19,20,21,22,22a-tetradecahydro-8H-7,10-methanocyclopropa[18,19][1,10,3,6] dioxadiazacyclononadecino[11,12-b]quinoline-8-carboxamide] | 0.034 nM | 0.25 nM | – | – |
| C=C[C@@H]1C[C@]1(NC(=O)[C@@H]1C[C@@H]2CN1C(=O)[C@H](C(C)(C)C)NC(=O)O[C@@H]1C[C@H]1CCCCCc1c(nc3c(OC)cccc3c1OCCCn1ccnc1)O2)C(=O)NS(=O)(=O)C1(C)CC1 [Example 144, (1aR,5S,8S,10R,22aR)-5-tert-butyl-N-[(1R,2S)-2-ethenyl-1-{[(1-methylcyclopropyl)sulfonyl]carbamoyl}cyclopropyl]-17-[3-(1H-imidazol-1-yl)propoxy]-13-methoxy-3,6-dioxo-1,1a,3,4,5,6,9,10,18,19,20,21,22,22a-tetradecahydro-8H-7,10-methanocyclopropa[18,19][1,10,3,6]dioxadiazacyclononadecino[11,12-b]quinoline-8-carboxamide] | 0.61 nM | 6.2 nM | – | – |
| C=C[C@@H]1C[C@]1(NC(=O)[C@@H]1C[C@@H]2CN1C(=O)[C@H](C(C)(C)C)NC(=O)O[C@@H]1C[C@H]1CCCCCc1c(nc3ccccc3c1OC1CC3CCC(C1)N3CCOC)O2)C(=O)NS(=O)(=O)C1(C)CC1 (single isomer, unassigned) [Example 276] | – | 0.14 nM | 0.013 nM | 0.019 nM |
| C=C[C@@H]1C[C@]1(NC(=O)[C@@H]1C[C@@H]2CN1C(=O)[C@H](C(C)(C)C)NC(=O)O[C@@H]1C[C@H]1CCCCCc1c(nc3c(F)cccc3c1OCCN1CCC1)O2)C(=O)NS(=O)(=O)C1(C)CC1 [Example 212, (1aR,5S,8S,10R,22aR)-17-[2-(azetidin-1-yl)ethoxy]-5-tent-butyl-N-[(1R,2S)-2-ethenyl-1-{[(1-methylcyclopropyl)sulfonyl]carbamoyl}cyclopropyl]-13-fluoro-3,6-dioxo-1,1a,3,4,5,6,9,10,18,19,20,21,22,22a-tetradecahydro-8H-7,10-methanocyclopropa[18,19][1,10,3,6] dioxadiazacyclononadecino[11,12-b]quinoline-8-carboxamide] | 0.22 nM | 1.9 nM | – | – |
| C=C[C@@H]1C[C@]1(NC(=O)[C@@H]1C[C@@H]2CN1C(=O)[C@H](C1CCCC1)NC(=O)O[C@@H]1CCC[C@H]1CC/C=C/Cc1c(nc3cccc(Cl)c3c1OC)O2)C(=O)NS(=O)(=O)C1CC1 [Example 10, (3aR,7S,10S,12R,21E,24aS)-18-chloro-7-cyclopentyl-N-{(1R,2S)-1-[(cyclopropylsulfonyl)carbamoyl]-2-ethenylcyclopropyl}-19-methoxy-5,8-dioxo-1,2,3,3a,5,6,7,8,11,12,20,23,24,24a-tetradecahydro-10H-9,12-methanocyclopenta [18,19][1,10,3,6]dioxadiazacyclononadecino [11,12-b]quinoline-10-carboxamide] | 0.19 nM | 11 nM | – | – |
| C=C[C@@H]1C[C@]1(NC(=O)[C@@H]1C[C@@H]2CN1C(=O)[C@H](C(C)(C)C)NC(=O)O[C@@H]1C[C@H]1CCCCCc1c(nc3ccccc3c1OCCCN(CCOC)CCOC)O2)C(=O)NS(=O)(=O)C1(C)CC1 [Example 186, (1aR,5S,8S,10R,22aR)-17-{3-[bis(2-methoxyethyl)amino]propoxy}-5-tert-butyl-N-[(1R,2S)-2-ethenyl-1-{[(1-methylcyclopropyl)sulfonyl]carbamoyl}cyclopropyl]-3,6-dioxo-1,1a,3,4,5,6,9,10, 18,19,20,21,22,22a-tetradecahydro-8H-7,10-methanocyclopropa[18,19][1,10,3,6] dioxadiazacyclononadecino[11,12-b] quinoline-8-carboxamide] | 0.078 nM | 1.9 nM | – | – |
